We go through 20 compounds from PubChem BioAssay (NCI).

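Cells were grown in 96-well plates and exposed to each compound for 48 hours at five concentrations; endpoints were interpolated linearly between bracketing concentrations, or set to the highest concentration if not reached. TGI: concentration producing complete growth inhibition.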 Where only a bound is given, the exact number is not on record here.

Among the test systems are SNB-78 CNS; RXF-631 renal; DMS 273 small cell lung; DMS 114 small cell lung; DLD-1 colon; LXFL 529 NSCLC; M19-MEL melanoma; MDA-N; HOP-18 NSCLC.
Holding throughout (assay): NCI tumour cell line growth inhibition, 48 h

As for `O=C1c2ccccc2CC1C1(O)C(=O)Nc2ccccc21` (stereo unspecified), the TGI in the test with SNB-78 CNS, with RXF-631 renal, in the test with DMS 273 small cell lung, in the test on DMS 114 small cell lung, with DLD-1 colon and with LXFL 529 NSCLC was over 100 µM in each case. Moreover, the TGI with M19-MEL melanoma was over 100 µM.

Regarding `N#Cc1cc([N+](=O)[O-])ccc1NC(=O)/C(=N/N)C(C(=O)c1ccc(Cl)c(Cl)c1)C1OC(=O)c2ccccc21` (stereo unspecified), the TGI in the test on SNB-78 CNS, in the test with DMS 114 small cell lung, with DLD-1 colon, in the test on LXFL 529 NSCLC and in the test with M19-MEL melanoma was over 100 µM in each case.

As for `CN(C)c1ccc(C(=C2C=CC(=[N+](C)C)C=C2)c2ccc(N(C)C)cc2)cc1`, the TGI stood at 5.67 µM in the test on SNB-78 CNS; 1.15 µM in the test on DMS 273 small cell lung; 1.74 µM with DLD-1 colon; 1.03 µM with LXFL 529 NSCLC; 1.41 µM in the test on M19-MEL melanoma.

In the test on MDA-N, `Clc1nc(Cl)c(-c2ccccc2)c(Cl)n1` came in with a TGI of 6.67 µM.

For the compound `COc1cc(C)c(O)c(C(=O)O)c1`, the TGI in the test on SNB-78 CNS, with DMS 273 small cell lung, with HOP-18 NSCLC, in the test with DMS 114 small cell lung, in the test on DLD-1 colon and with LXFL 529 NSCLC was over 100 µM in each case. In addition, in the test with M19-MEL melanoma, the TGI is over 100 µM.

Take `CCOC(=O)c1nc(-c2ccccc2)oc1OCC`: the TGI in the test on SNB-78 CNS, with DMS 273 small cell lung, in the test with HOP-18 NSCLC, with DMS 114 small cell lung, in the test with DLD-1 colon and in the test with LXFL 529 NSCLC was over 100 µM throughout. The compound further registered a TGI in the test with M19-MEL melanoma of over 100 µM.

Regarding `CC12CC(OC(=O)[C@]1(C)O)[C@@H]([C@]1(O)CC[C@H]3[C@@H]4C[C@H]5O[C@]56[C@@H](O)C=CC(=O)[C@]6(C)[C@H]4CC[C@@]31C)C2` (stereo partly specified), the TGI in the test with MDA-N was found to be 26.9 µM.

Regarding `c1ccc(CSc2nnc3c4ccccc4c4ccccc4c3n2)cc1`, in the test with MDA-N, the TGI was over 100 µM.

Turning to `Cc1ccc(Sc2ccc(C)cc2[N+](=O)[O-])c([N+](=O)[O-])c1`, the TGI with SNB-78 CNS, with DMS 273 small cell lung, in the test with HOP-18 NSCLC, in the test on DMS 114 small cell lung, with LXFL 529 NSCLC and in the test on M19-MEL melanoma was over 100 µM in each case.

For the compound `CCOC(=O)C1=C(Nc2cccc3ccccc23)OC/C1=N\NC(=O)c1ccccc1O`, the TGI with RXF-631 renal was over 100 µM; with DMS 273 small cell lung, over 61.1 µM; with HOP-18 NSCLC it was 83.7 µM; in the test with DMS 114 small cell lung it was 31.6 µM; in the test on DLD-1 colon it was 81.5 µM; in the test with LXFL 529 NSCLC, over 100 µM. The compound further showed a TGI in the test with M19-MEL melanoma of over 100 µM.

In the case of `COC(=O)C(F)C(Br)C(=O)OC` (stereo unspecified), the TGI in the test on MDA-N worked out at 22.7 µM.

As to `COc1cccc2nc3cc(C)c(C)cc3nc12`, the TGI in the test with SNB-78 CNS, with RXF-631 renal, in the test with DMS 273 small cell lung, in the test with HOP-18 NSCLC, with DMS 114 small cell lung and in the test with DLD-1 colon was over 100 µM throughout. Also, the TGI with LXFL 529 NSCLC and in the test on M19-MEL melanoma was over 100 µM in each case.

Consider `COC(=O)C1=C(O)c2cc3c(cc2[C@H](c2cc(OC)c(OC)c(OC)c2)C1C(=O)OC)OCO3` (stereo partly specified), for which the TGI is over 100 µM in the test on SNB-78 CNS; over 100 µM with RXF-631 renal; over 100 µM in the test with DMS 273 small cell lung; 89.4 µM with HOP-18 NSCLC; 68.8 µM with DMS 114 small cell lung; over 100 µM in the test on DLD-1 colon. The TGI with LXFL 529 NSCLC and with M19-MEL melanoma was over 100 µM each time.

Take `CC(C)C12C=CC(C)(CC1)n1c(=O)c3cc4ccccc4cc3c(=O)n12` (stereo unspecified): the TGI in the test with SNB-78 CNS, in the test on RXF-631 renal, with DMS 273 small cell lung, with DMS 114 small cell lung, in the test with DLD-1 colon and with LXFL 529 NSCLC was over 100 µM in each case. For the same compound, in the test on M19-MEL melanoma, the TGI was over 100 µM.

In turn, `CCC(/C=C/c1ccccc1)=N\Nc1ccc(Cl)c(Cl)c1` registered a TGI with MDA-N of over 100 µM.

Consider `COC(=O)C1=C(C(=O)OC)SC(=C(N=Nc2ccccc2)c2ccccc2)S1`, for which the TGI in the test with SNB-78 CNS, in the test on RXF-631 renal, in the test on DMS 273 small cell lung, in the test with HOP-18 NSCLC, with DLD-1 colon and in the test with LXFL 529 NSCLC was over 100 µM each time. In the test with M19-MEL melanoma, the TGI is over 100 µM.

Consider `COC(=O)c1cc(-c2cccn2C)c2c(c1C(=O)OC)c1ccccc1n2C`, for which the TGI with SNB-78 CNS, with RXF-631 renal, with DMS 273 small cell lung, in the test with HOP-18 NSCLC, in the test with DMS 114 small cell lung and in the test on DLD-1 colon was over 100 µM each time. For the same compound, the TGI with LXFL 529 NSCLC is over 100 µM.

In the case of `O=C(Nc1nc(=S)c2c(ncn2CCO)[nH]1)c1ccccc1`, the TGI in the test on SNB-78 CNS, in the test on DMS 273 small cell lung, in the test on HOP-18 NSCLC, in the test with DMS 114 small cell lung, in the test with DLD-1 colon and in the test with LXFL 529 NSCLC was over 100 µM throughout. In the test on M19-MEL melanoma, this compound yielded a TGI of over 100 µM.

On to `O=c1[nH]c(-c2ccc(-c3nc4cc([N+](=O)[O-])ccc4c(=O)[nH]3)cc2)nc2cc([N+](=O)[O-])ccc12`, for which the TGI in the test on SNB-78 CNS, in the test on RXF-631 renal, with DMS 273 small cell lung, with DMS 114 small cell lung, with DLD-1 colon and with LXFL 529 NSCLC was over 100 µM in each case. Besides, the TGI with M19-MEL melanoma is over 100 µM.

For `C=CC1C(OC2OC(CO)C(O)C(O)C2O)OC=C(C(=O)OC)C1CC=O` (stereo unspecified), the TGI in the test on SNB-78 CNS, in the test with RXF-631 renal, in the test on HOP-18 NSCLC, with DLD-1 colon, in the test with LXFL 529 NSCLC and with M19-MEL melanoma was over 100 µM throughout.
